Data: PMC11472313, “Development of Fragment-Based Inhibitors of the Bacterial Deacetylase LpxC with Low Nanomolar Activity” (Journal of Medicinal Chemistry, 2024)
Several values for one entry are separate records, joined by “and”; a condition that tells them apart may be missing. Equal entries are not always repeated.

Experiments:
[1] = target: T1, E. coli LpxC C63A (Escherichia coli, UniProt P0A725, C63A); assay: fluorescence-based E. coli LpxC C63A enzyme inhibition assay; format: biochemical; conditions: for fold higher LpxC inhibitory activity than its enantiomer (eudysmic ratio): E. coli LpxC C63A, (S) versus (R); for Ki: Ki E. coli LpxC C63A, from IC50 via Cheng–Prusoff
T1 construct: made in house; host or cells: E. coli BL21(DE3)
Experimental: In order to determine the inhibitory activities of the compounds of interest toward E. coli LpxC, a fluorescence-based enzyme assay was deployed, in which the formed deacetylated natural product UDP-3-O-[(R)-3-hydroxymyristoyl]glucosamine (2) is transformed into a fluorescent isoindole with o-phthaldialdehyde and 2-mercaptoethanol.[48],[49] […] The KM of E. coli LpxC C63A was determined experimentally using a mass spectrometry-based LpxC assay (Figure S8, Supporting Information, vide infra).
A fluorescence-based microplate assay for LpxC activity was performed as described by Clements et al.[48] The wells in a black, nonbinding, 96-well fluorescence microplate (Greiner Bio One, Frickenhausen) were filled with 93 μL of 26.9 μM UDP-3-O-[(R)-3-hydroxymyristoyl]-N-acetylglucosamine in assay buffer [40 mM sodium morpholinoethanesulfonic acid (pH 6.0), 80 μM dithiothreitol, 0.02% Brij 35]. In order to assay the inhibitors at final concentrations from 20 nM up to 20 μM, 2 μL of a respective dilution of the compounds in DMSO were added. The addition of 5 μL of a solution of purified LpxC (10 μg mL^–1) in assay buffer led to final concentrations of 25 μM UDP-3-O-[(R)-3-hydroxymyristoyl]-N-acetylglucosamine, 15 nM E. coli LpxC C63A, 2% DMSO, and from 20 nM up to 20 μM inhibitor. The microplate was incubated for 30 min at 37 °C in a plate shaker. Then, the biochemical reaction was stopped by adding 40 μL of 0.625 M sodium hydroxide. The reaction mixture was further incubated for 10 min and neutralized by adding 40 μL of 0.625 M acetic acid. The deacetylated product UDP-3-O-[(R)-3-hydroxymyristoyl]glucosamine was converted into a fluorescing isoindole by adding 120 μL of an o-phthaldialdehyde-2-mercaptoethanol solution, which was prepared by dissolving 10 mg of o-phthaldialdehyde in 1 mL of methanol, diluting the mixture with 24 mL of a sodium borate buffer (0.1 M), and finally adding 2.5 μL of 2-mercaptoethanol.[49] Fluorescence was measured with a TriStar^2 S LB 942 plate reader (Berthold, Bad Wildbad) at 340 nm excitation and 460 nm emission wavelengths. Each assay was performed at least three times on separate days. The IC50 values were calculated via Probit-log concentration graphs with the aid of the software Origin and were subsequently converted into Ki values using the Cheng–Prusoff equation.[75],[76]

[2] = system: E. coli BL21(DE3); assay: disc diffusion assay; format: cell-based; conditions: 0.15 μmol per 6 mm disc
Experimental: (§1) Besides measuring the inhibitory activities toward E. coli LpxC C63A, the antibacterial activities of the synthesized hydroxamic acids were evaluated by determining their minimal inhibitory concentrations (MIC) in broth dilution tests as well as by performing disc diffusion assays (Table 1).
(§2) The disc diffusion assays against E. coli BL21(DE3) and the defective strain E. coli D22 were performed as follows: liquid cultures of the bacteria were grown overnight in lysogeny broth (LB)[73] at 37 °C and 200 rpm. 150 μL of an overnight cell suspension was spread evenly onto LB agar plates. 0.15 μmol of each compound (dissolved in 10 or 15 μL DMSO) were applied onto circular filter paper (Ø = 6 mm, Cytiva). Pure DMSO, serving as a negative control, and CHIR-090, serving as a positive control, were also spotted. The agar plates were incubated overnight at 37 °C, and the diameter of the zone of growth inhibition was measured for each compound. Each assay was performed at least three times on separate days.

[3] = system: E. coli D22; assay: disc diffusion assay; format: cell-based; conditions: 0.15 μmol per 6 mm disc
Experimental: as §1, §2

[4] = target: T2, LasB (Pseudomonas aeruginosa, UniProt Q02RJ6); assay: FRET-based LasB in vitro inhibition assay; format: biochemical, P. aeruginosa PA14; conditions: for inhibition at 20 µM: read-out: LasB Inhibition at 20 μM
T2 construct: The elastase LasB of P. aeruginosa is a secreted metalloprotease; endogenous in cells; host or cells: P. aeruginosa PA14 culture supernatant
Experimental: (§3) Purification of LasB from P. aeruginosa PA14 supernatant and the subsequent performance of the FRET-based in vitro inhibition assay was performed as described previously.[66] The TACE (ADAM-17) inhibitor screening kit was purchased from Sigma-Aldrich (Saint Louis, MO). MMPs 1–3 along with the SensoLyte 520 Generic MMP Activity Kit Fluorimetric were purchased from AnaSpec (Fremont, CA, USA). The assays were performed according to the guidelines of the respective manufacturer. Fluorescence signals were measured using a CLARIOstar plate reader (BMG Labtech, Ortenberg, Germany).

[5] = microsomal metabolic stability, human; format: in vitro ADME; conditions: human liver microsomes
Experimental: Also, the plasma stability of the compounds in mouse plasma was generally low with half-lives between 22.9 min [(S)-13h] and 43.1 min [(S)-13j].
The microsomal metabolic stability assay as well as the plasma protein binding assay were conducted as described previously.[78]
Samples were analyzed using an Agilent 1290 Infinity II HPLC system coupled to an AB Sciex QTrap 6500plus mass spectrometer. LC conditions were as follows: column: Agilent Zorbax Eclipse Plus C18, 50 × 2.1 mm, 1.8 μm; temperature: 30 °C; injection volume: 5 μL per sample; flow rate: 700 μL min^–1. Samples were run under acidic conditions. Solvents: (A) water + 0.1% formic acid; (B) 95% acetonitrile/5% H2O + 0.1% formic acid. Gradient elution: (A %): 0–0.1 min: 99%, 0.1–3.5 min: gradient from 99 to 50%, 3.5–3.8 min: gradient from 50 to 0%, 3.8–4.7 min: gradient from 0 to 99%. Mass transitions for controls and compounds are depicted in Table S3.

[6] = stability in mouse plasma; format: in vitro ADME; conditions: CD-1, mouse, pooled plasma, 1 μM compound, pooled CD-1 mouse plasma; read-out: mouse plasma stability t1/2
Experimental: To determine stability in mouse plasma, the compound (1 μM) was incubated with pooled CD-1 mouse plasma (Neo Biotech, Nanterre, France). Samples were taken at defined time points by mixing aliquots with 4 volumes of acetonitrile containing internal standard (125 nM diphenhydramine). Samples were stored on ice until the end of the incubation, and the precipitated protein was removed by centrifugation (15 min, 4 °C, 4000g, 2 centrifugation steps). Concentration of the remaining test compound at the different time points was analyzed by HPLC–MS/MS (TSQ Quantum Access MAX, Thermo Fisher, Dreieich, Germany). The plasma stability of procain, propantheline, and diltiazem were determined in parallel to confirm enzymatic activity.

[7] = target: T3, TACE (ADAM-17) (Homo sapiens, UniProt P78536); assay: TACE (ADAM-17) inhibitor screening kit; format: biochemical; conditions: read-out: TACE (% inhibition at 20 μM)
T3 construct: purchased Sigma-Aldrich (Saint Louis, MO)
Experimental: Since LpxC and LasB are zinc-dependent enzymes, we investigated potential off-target activity of the three frontrunners on mammalian zinc-dependent enzymes. Our panel comprised three representative matrix-metalloproteases (MMP1–3) and tumor necrosis factor-α converting enzyme (TACE, also known as ADAM17) (Table 6).
as §3

T1 sequence (P0A725 whole entry C63A): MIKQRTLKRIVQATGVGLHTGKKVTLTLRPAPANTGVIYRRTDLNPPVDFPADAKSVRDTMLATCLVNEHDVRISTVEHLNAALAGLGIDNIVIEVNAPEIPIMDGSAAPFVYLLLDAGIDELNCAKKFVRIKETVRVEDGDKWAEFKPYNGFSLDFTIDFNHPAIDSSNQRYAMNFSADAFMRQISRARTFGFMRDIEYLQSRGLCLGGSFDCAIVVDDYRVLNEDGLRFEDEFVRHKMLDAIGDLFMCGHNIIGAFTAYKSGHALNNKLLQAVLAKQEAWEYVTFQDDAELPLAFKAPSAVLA
T2 sequence (Q02RJ6 198-498): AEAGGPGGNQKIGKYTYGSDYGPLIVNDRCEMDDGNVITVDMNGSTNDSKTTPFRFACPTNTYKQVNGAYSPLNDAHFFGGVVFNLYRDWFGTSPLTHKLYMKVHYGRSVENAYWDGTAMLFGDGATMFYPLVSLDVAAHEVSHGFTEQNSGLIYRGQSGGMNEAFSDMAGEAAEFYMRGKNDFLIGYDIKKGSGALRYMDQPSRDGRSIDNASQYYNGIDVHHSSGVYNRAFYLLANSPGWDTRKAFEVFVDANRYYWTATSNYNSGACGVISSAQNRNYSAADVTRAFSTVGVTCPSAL
T3 sequence (P78536 215-824, species assumed): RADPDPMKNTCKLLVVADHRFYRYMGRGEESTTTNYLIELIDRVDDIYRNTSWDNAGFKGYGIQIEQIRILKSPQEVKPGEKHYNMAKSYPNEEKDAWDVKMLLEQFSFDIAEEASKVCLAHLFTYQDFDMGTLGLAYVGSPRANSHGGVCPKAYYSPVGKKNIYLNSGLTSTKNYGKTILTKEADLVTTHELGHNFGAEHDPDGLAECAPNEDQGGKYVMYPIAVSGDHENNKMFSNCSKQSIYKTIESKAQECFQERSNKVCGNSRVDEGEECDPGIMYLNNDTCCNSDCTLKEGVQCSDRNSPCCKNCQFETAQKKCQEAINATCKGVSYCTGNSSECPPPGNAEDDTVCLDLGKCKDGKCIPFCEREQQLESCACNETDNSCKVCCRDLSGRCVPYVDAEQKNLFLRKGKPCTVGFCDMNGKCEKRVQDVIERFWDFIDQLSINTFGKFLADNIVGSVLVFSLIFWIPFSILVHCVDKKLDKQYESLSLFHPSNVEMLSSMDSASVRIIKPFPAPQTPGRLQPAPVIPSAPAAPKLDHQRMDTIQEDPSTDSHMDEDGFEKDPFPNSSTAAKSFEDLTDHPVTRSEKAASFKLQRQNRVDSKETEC

Row | SMILES | fold higher LpxC inhibitory activity than its enantiomer (eudysmic ratio) [1] [fold] | Ki [1] | Inhibition zone E. coli BL21(DE3) [2] [mm] | Inhibition zone E. coli D22 [3] [mm] | IC50 [4] [nM] | inhibition at 20 µM [4] [%] | LasB Inhibition at 20 μM [4] | microsomal CLint [5] [µL/min/mg] | half-life ([5]; read-out: microsomal metabolic stability t1/2) [min] | half-life at 1 μM [6] [min] | inhibition at 20 µM [7] [%]
1 | O=C(NO)[C@H](COCc1ccccc1)OCc1ccc(C#Cc2ccc(CN3CCOCC3)cc2)cc1 [(S)-11a, (S)-3-(Benzyloxy)-N-hydroxy-2-[(4-{[4-(morpholinomethyl)phenyl]ethynyl}benzyl)oxy]propanamide] | 6 | 606 ± 356 nM | ≤6 | 15.4 ± 2.4 | 14300 ± 900 | 62.3 ± 3.2 |  |  |  |  | 
2 | O=C(NO)[C@H](CNCc1ccccc1)OCc1ccc(C#Cc2ccc(CN3CCOCC3)cc2)cc1 [(S)-12a, (S)-3-(Benzylamino)-N-hydroxy-2-[(4-{[4-(morpholinomethyl)phenyl]ethynyl}benzyl)oxy]propanamide] |  | 4590 ± 1260 nM | 13.0 ± 1.0 | 24.3 ± 2.1 | 21900 ± 1200 | 57 ± 2 |  |  |  |  | 
3 | O=C(NC[C@H](OCc1ccc(C#Cc2ccc(CN3CCOCC3)cc2)cc1)C(=O)NO)c1ccccc1 [(S)-13a, (S)-N-{3-(Hydroxyamino)-2-[(4-{[4-(morpholinomethyl)phenyl]ethynyl}benzyl)oxy]-3-oxopropyl}benzamide] | 17 | 150 nM and 149 nM | 15.7 ± 1.6 | 26.3 ± 1.5 |  | 20.1 ± 3.9 |  |  |  |  | 
4 | O=C(NC[C@H](OCc1ccc(C#Cc2ccc(CN3CCOCC3)cc2)cc1)C(=O)NO)c1cccc(-c2ccccc2)c1 [(S)-13c] |  | 42 nM and 41.5 nM | ≤6 | 19.0 ± 1.5 |  | < 10 | little to no inhibitory activity |  |  |  | 
5 | O=C(NC[C@H](OCc1ccc(C#Cc2ccc(CN3CCOCC3)cc2)cc1)C(=O)NO)c1ccc(Oc2ccccc2)cc1 [(S)-13d] |  | 323 ± 126 nM | ≤6 | 9.3 ± 1.6 |  | < 10 | little to no inhibitory activity |  |  |  | 
6 | O=C(NC[C@H](OCc1ccc(C#Cc2ccc(CN3CCOCC3)cc2)cc1)C(=O)NO)c1ccc2ccccc2n1 [(S)-13e] |  | 377 ± 83 nM | ≤6 | 16.0 ± 2.5 |  | 11.6 ± 1.9 | little to no inhibitory activity |  |  |  | 
7 | O=C(NC[C@H](OCc1ccc(C#Cc2ccc(CN3CCOCC3)cc2)cc1)C(=O)NO)c1cnc2ccccc2c1 [(S)-13f] |  | 117 ± 21 nM | 11.5 ± 2.1 | 29.0 ± 1.0 |  | < 10 | little to no inhibitory activity |  |  |  | 
8 | O=C(NC[C@H](OCc1ccc(C#Cc2ccc(CN3CCOCC3)cc2)cc1)C(=O)NO)c1cc2ccccc2[nH]1 [(S)-13g] |  | 87 ± 58.5 nM | 10.0 ± 1.0 | 23.0 ± 1.0 |  | < 10 | little to no inhibitory activity |  |  |  | 
9 | O=C(NC[C@H](OCc1ccc(C#Cc2ccc(CN3CCOCC3)cc2)cc1)C(=O)NO)c1c[nH]c2ccccc12 [(S)-13h] |  | 10.7 ± 1.2 nM | 19.7 ± 1.6 | 29.3 ± 1.6 |  | 25.2 ± 5.6 | little to no inhibitory activity | < 23 | > 60 | 22.9 ± 4.8 | < 10
10 | O=C(NC[C@H](OCc1ccc(C#Cc2ccc(CN3CCOCC3)cc2)cc1)C(=O)NO)c1cccc2[nH]ccc12 [(S)-13i] |  | 15.3 ± 3.6 nM | 20.4 ± 1.6 | >30 |  | 27.6 ± 2.9 | little to no inhibitory activity |  |  |  | 
11 | O=C(NC[C@H](OCc1ccc(C#Cc2ccc(CN3CCOCC3)cc2)cc1)C(=O)NO)c1ccc[nH]1 [(S)-13k] |  | 97.1 ± 9.4 nM | 23.3 ± 0.6 | >30 |  | 22.4 ± 3.1 |  |  |  |  | 
12 | O=C(NC[C@H](OCc1ccc(C#Cc2ccc(CN3CCOCC3)cc2)cc1)C(=O)NO)c1cc(-c2ccccc2)[nH]n1 [(S)-13m] |  | 85.2 ± 21.7 nM | 11.3 ± 1.6 | 24.5 ± 1.8 |  | < 10 | little to no inhibitory activity |  |  |  | 
13 | Cc1noc(C)c1C(=O)NC[C@H](OCc1ccc(C#Cc2ccc(CN3CCOCC3)cc2)cc1)C(=O)NO [(S)-13n] |  | 127 ± 40 nM | 20.8 ± 1.1 | >30 | 1800 ± 150 | 92.7 ± 0.7 |  |  |  |  | 
14 | O=C(NO)[C@H](CN(Cc1ccccc1)Cc1ccccc1)OCc1ccc(C#Cc2ccc(CN3CCOCC3)cc2)cc1 [(S)-37, (S)-3-(Dibenzylamino)-N-hydroxy-2-[(4-{[4-(morpholinomethyl)phenyl]ethynyl}benzyl)oxy]propanamide] |  | > 2540 nM | ≤6 | 7.7 ± 1.2 |  | < 10 | no inhibitory activity |  |  |  | 
